# From patent US11098040B2, “Compounds and methods of use” (Ferro Therapeutics, Inc., priority 2018, dated 2021)
# pIC50: −log10 of the molar value.
# Test system: KP4
# Assay: Cell viability assay (CellTiter Glo), pancreatic ductal adenocarcinoma KP4
# Format: cell-based, human
# Settings: Homo sapiens, KP-4, 96 h, pancreatic cancer cell line KP4, 96 hours, CellTiter Glo; read-out: IC50 μM KP4
# Description: (§1) Cell viability assay was performed to assess the potency of the compounds in human cancer cell lines KP4 (pancreatic ductal adenocarcinoma), MiaPaCa-2 (pancreatic carcinoma), AsPC-1 (pancreatic adenocarcinoma, ascites), 143B (osteosarcoma), and SJSA-1 (osteosarcoma). Selected compounds were also assayed in a human breast epithelial cell line MCF-10A, a nontumorigenic cell line as a control to assess differential activity. Cells at a density of 500-5,000 cells/well were seeded in 96-well plates and incubated at 37° C. overnight. A series of 9 different concentrations of compound stocks (500×) were created by 3-fold serial dilution in DMSO. These compounds were further diluted in culture media and then added to cells so that the final DMSO concentration was equal to 0.25% or less. After 96 hours of incubation, 50 μL of CellTiter Glo reagent (Promega) was added to each well and luminescence was measured after 10 minutes using EnVision (PerkinElmer). Compounds titrated from top concentration of up to 30 μM. The select compounds were tested initially from 30 μM as the top concentration in duplicates (range of 4.6 nM-30 μM). […] Luminescence from cells treated with DMSO alone was set as Max and % of inhibition was calculated as follows: Inhibition %=(Max-Sample value)/Max*100. Data was analyzed using XL-fit software (ID Business Solutions Ltd.). IC50, relative IC50, or % of top inhibition was calculated.
# as §1, with “in” for “in human”, “line” for “lines”, “adenocarcinoma).” for “adenocarcinoma), MiaPaCa-2 (pancreatic carcinoma), AsPC-1 (pancreatic adenocarcinoma, ascites), 143B (osteosarcoma), and SJSA-1 (osteosarcoma). Selected compounds were also assayed in a human breast epithelial cell line MCF-10A, a nontumorigenic cell line as a control to assess differential activity.”, “1,000-10,000” for “500-5,000”, “All” for “Compounds titrated from top concentration of up to 30 μM. The select”
# (§2) The results of the assay on stability in blood and IC50 values for pancreatic cancer cell line KP4 are given below in Table 24.
row,IC50 [µM],Compound
1,< 0.01,COC(=O)[C@H]1Cc2c([nH]c3ccccc23)[C@H](c2ccc(C(=O)NC(C)(C)C)cc2)N1C(=O)CCl [Compound 9]
2,0.01 to 0.1,CC(C)(C)OC(=O)[C@H]1Cc2c([nH]c3ccccc23)[C@H](c2ccc([N+](=O)[O-])cc2)N1C(=O)CCl [Compound 11]
3,0.1 to 0.5,CN(C)C(=O)[C@H]1Cc2c([nH]c3ccccc23)[C@@H](c2ccc(C(=O)OC(C)(C)C)cc2)N1C(=O)CCl [Compound 21a]
4,0.1 to 0.5,CN(C)C(=O)[C@H]1Cc2c([nH]c3ccccc23)[C@H](c2ccncc2)N1C(=O)CCl [Compound 50]
5,< 0.01,[2H]C([2H])(Cl)C(=O)N1[C@@H](c2ccc(C(=O)OC)cc2)c2[nH]c3ccccc3c2C[C@@H]1C(=O)OC [Compound 90]
6,< 0.01,C[C@H]1Cc2c([nH]c3ccccc23)[C@H](c2ccc(C3CC3)cc2)N1C(=O)CCl [Compound 108]

# Further lines, the compound ahead of its results:
row,Compound,IC50 [µM]
1,C[C@H]1Cc2c([nH]c3ccccc23)[C@@H](c2ccc(N3CCN(C)CC3)cc2)N1C(=O)OCl [Compound 105],0.5 to 1
2,C[C@H]1Cc2c([nH]c3ccccc23)[C@H](c2ccc([Si](C)(C)C)cc2)N1C(=O)CCl [Compound 106],< 0.01
3,C[C@H]1Cc2c([nH]c3ccccc23)[C@@H](c2ccc([Si](C)(C)C)cc2)N1C(=O)CCl [Compound 107],> 1

# Same assay, conditions: Homo sapiens, KP-4, Cell Line KP4; read-out: IC50
row,Compound,pIC50
1,[2H]C([2H])(Cl)C(=O)N1[C@@H](c2ccc(S(=O)(=O)NC34CC5CC(CC(C5)C3)C4)cc2)c2[nH]c3ccccc3c2C[C@@H]1C(=O)OC [Compound 251],8.19
2,COC(=O)c1ccc([C@H]2c3[nH]c4ccc(OC)cc4c3C[C@H](C(=O)OC)N2C(=O)CCl)cc1 [Compound 277],7.44

# Test system: not listed separately
# Assay: Whole blood stability, mouse
# Format: in vitro ADME
# Settings: 0 min
# From the text: as §2
row,Compound,Whole Blood Stability % Remaining at 37° C. Mouse [%]
1,COC(=O)[C@H]1Cc2c([nH]c3ccccc23)[C@H](c2ccc(C(=O)NC(C)(C)C)cc2)N1C(=O)CCl [Compound 9],100.0
2,CC(C)(C)OC(=O)[C@H]1Cc2c([nH]c3ccccc23)[C@H](c2ccc([N+](=O)[O-])cc2)N1C(=O)CCl [Compound 11],100.0

# Same assay, conditions: 30 min
row,Compound,Whole Blood Stability % Remaining at 37° C. Mouse [%]
1,COC(=O)[C@H]1Cc2c([nH]c3ccccc23)[C@H](c2ccc(C(=O)NC(C)(C)C)cc2)N1C(=O)CCl [Compound 9],61.9
2,CC(C)(C)OC(=O)[C@H]1Cc2c([nH]c3ccccc23)[C@H](c2ccc([N+](=O)[O-])cc2)N1C(=O)CCl [Compound 11],56.9

# Same assay, conditions: 60 min
row,Compound,Whole Blood Stability % Remaining at 37° C. Mouse [%]
1,COC(=O)[C@H]1Cc2c([nH]c3ccccc23)[C@H](c2ccc(C(=O)NC(C)(C)C)cc2)N1C(=O)CCl [Compound 9],40.6
2,CC(C)(C)OC(=O)[C@H]1Cc2c([nH]c3ccccc23)[C@H](c2ccc([N+](=O)[O-])cc2)N1C(=O)CCl [Compound 11],38.6

# Test system: not listed separately
# Assay: Whole blood stability, human
# Format: in vitro ADME
# Settings: 0 min
# From the text: as §2
row,Compound,Whole Blood Stability % Remaining at 37° C. Human [%]
1,COC(=O)[C@H]1Cc2c([nH]c3ccccc23)[C@H](c2ccc(C(=O)NC(C)(C)C)cc2)N1C(=O)CCl [Compound 9],100.0
2,CC(C)(C)OC(=O)[C@H]1Cc2c([nH]c3ccccc23)[C@H](c2ccc([N+](=O)[O-])cc2)N1C(=O)CCl [Compound 11],100.0

# Same assay, conditions: 30 min
row,Compound,Whole Blood Stability % Remaining at 37° C. Human [%]
1,COC(=O)[C@H]1Cc2c([nH]c3ccccc23)[C@H](c2ccc(C(=O)NC(C)(C)C)cc2)N1C(=O)CCl [Compound 9],53.8
2,CC(C)(C)OC(=O)[C@H]1Cc2c([nH]c3ccccc23)[C@H](c2ccc([N+](=O)[O-])cc2)N1C(=O)CCl [Compound 11],67.1

# Same assay, conditions: 60 min
row,Compound,Whole Blood Stability % Remaining at 37° C. Human [%]
1,COC(=O)[C@H]1Cc2c([nH]c3ccccc23)[C@H](c2ccc(C(=O)NC(C)(C)C)cc2)N1C(=O)CCl [Compound 9],47.0
2,CC(C)(C)OC(=O)[C@H]1Cc2c([nH]c3ccccc23)[C@H](c2ccc([N+](=O)[O-])cc2)N1C(=O)CCl [Compound 11],59.9
